The test system of data set [1] is plasmid DNA. As to the kind of experiment: agarose gel electrophoresis (gel retardation) of nucleic acid-aminoglycoside complexes. The format is binding. As to conditions: plasmid DNA complexed with 5-100 mM aminoglycoside. As to the method: Plasmid DNA and the three different prototype aminoglycosides (neomycin, gentamycin, tobramycin) were diluted to 2× the final desired concentration in separate vials. In formulations with a molar excess of DNA, the diluted aminoglycoside solution was added to the DNA using a pipette with light vortexing. In formulations with a molar excess of aminoglycoside, the DNA was added to the aminoglycoside solution with light vortexing. The formulations were allowed to rest for about 30 minutes before characterization. Complexes of Nucleic Acid-Aminoglycoside were prepared according to the above described method and then analyzed using agarose gel electrophoresis to verify that the nucleic acids were being complexed with the aminoglycosides. Specifically, complexes having varying doses of DNA to three different aminoglycosides were prepared such that plasmid DNA was complexed with 5-100 mM of Neomycin, Tobramycin and Gentamicin.

For data set [2] the following is noted: intravenous and subcutaneous; patients with normal renal function; Physicians' Desk Reference, 2001; cited from earlier work.

Turning to `NC[C@H]1O[C@H](O[C@H]2[C@H](O)[C@@H](O[C@H]3O[C@H](CO)[C@@H](O)[C@H](N)[C@H]3O)[C@H](N)C[C@@H]2N)[C@H](N)C[C@@H]1O` [Tobramycin, tobramycin], the “gel retardation (complexation of DNA with aminoglycoside)” value (“gel retardation” below) in data set [1] is on record as “dose-dependant increase in gel retardation”.
For `NCC[C@H](O)C(=O)N[C@@H]1C[C@H](N)[C@@H](O[C@H]2O[C@H](CN)[C@@H](O)[C@H](O)[C@H]2O)[C@H](O)[C@H]1O[C@H]1O[C@H](CO)[C@@H](O)[C@H](N)[C@H]1O` [amikacin], in data set [2], the “high dose delivered without adverse or unacceptable therapeutic effects” value is on record as 15 mg/kg of body weight per day.
On to Gentamicin, for which, in data set [1], the “gel retardation” value was “dose-dependant increase in gel retardation”. Further, the “high dose delivered without adverse or unacceptable therapeutic effects” value in data set [2] is 5 mg/kg of body weight per day.
On to neomycin, for which the “gel retardation” value in data set [1] was “dose-dependant increase in gel retardation”.

The values above are taken from patent US20050019926A1, “Compositions of nucleic acids and cationic aminoglycosides and methods of using and preparing the same” (Aradigm Corporation, priority 2001, published 2005).
